From article PMC4701221, “Novel Promising Estrogenic Receptor Modulators: Cytotoxic and Estrogenic Activity of Benzanilides and Dithiobenzanilides” (PLoS ONE, 2016)

Columns and labels:
A549 cells = experiment: MTT assay, A549; format: cell-based; conditions: Homo sapiens, 72 h, lung adenocarcinoma, read-out: Cytotoxic activity IC50, A549
Method: (§1) The cell lines used in the cytotoxicity study, besides MCF-12A, were purchased from European Collection of Cell Culture (ECACC, Salisbury, UK): HEK293 (human embryonic kidney, ATTC no. CRL-1573), A549 (Human lung carcinoma, ECACC no. 86012804), CCD39Lu (Human lung fibroblasts, ECACC no. 90110512), MCF-7 (Human breast adenocarcinoma, ECACC no. 86012803) and MDA-MB-231 (Human breast adenocarcinoma ECACC no. 92020424). Cell lines were cultured in DMEM medium without phenol red and supplemented with 10% (v/v) FBS, 1% penicillin-streptomycin and 1% L-glutamine. MCF-12A (ATTC no. […]) was purchased from American Type Culture Collection (ATCC Manassas, VA 20110 USA). MCF-12A cells were kept in 1:1 mixture of Dulbecco’s modified Eagle’s medium and Ham’s F12 medium, 20 ng/ml human epidermal growth factor, 100 ng/ml cholera toxin, 0.01 mg/ml bovine insulin, 500 ng/ml hydrocortisone and 5% horse serum. All cell lines were cultured at 37°C, in a humidified atmosphere containing 5% CO2.
(§2) Compounds were dissolved in DMSO to the final concentration of […]. A549, CCD39Lu, MCF-7, MDA-MB-231 and MCF-12A cells were seeded in 96 wells plates at density 2x10^4 cells/well and incubated overnight as described above. Subsequently, cells were treated with tested compounds at concentrations: 100 μM; 50 μM; 25μM; 12.5μM; 6 μM; 3 μM; 1.5 μM. […] Cells were incubated 72 h at 37°C in a humidified atmosphere containing 5% CO2 in the cell culture media appropriate for each cell line. Then, the medium was aspirated and 170 μl MTT solution (5mg/ml) was added to each well. Plates were incubated for 2 hours at 37°C, and then plates were centrifuged at 1200 rpm for 3 minutes. The formazan crystals were dissolved in 200 μl DMSO and plates were further agitated on a plate shaker at 300–500 rpm for 10 minutes. Absorbance at 570 nm (with reference wavelenght 650 nm) was measured using a plate reader (Biotek Instruments, Elx-800). Cell viability was calculated as a percentage relative to the control.

MDA-MB-231 cells = experiment: MTT assay, MDA-MB-231; format: cell-based, human; conditions: for IC50: Homo sapiens, MDA-MB-231, 72 h, estrogen independent breast adenocarcinoma, read-out: Cytotoxic activity IC50, MDA-MB-231
Method: as §1, §2

MCF-7 cells = experiment: MTT assay, MCF-7; format: cell-based, human; conditions: for IC50: Homo sapiens, MCF7, 72 h, estrogen dependent breast adenocarcinoma, read-out: Cytotoxic activity IC50, MCF-7; for Activity in MTT assay (in words), MCF-7: 72 h
Method: as §1, §2

MTT assay, CCD39Lu = format: cell-based; conditions: human, CCD39Lu cells (non-tumorigenic lung fibroblasts), read-out: Cytotoxic activity IC50, CCD39Lu
Method: as §1, §2

MTT assay, MCF-12A = format: cell-based; conditions: human, MCF-12A cells (non-tumorigenic breast epithelial), read-out: Cytotoxic activity IC50, MCF-12A
Method: as §1, §2

human ERα receptor = target: T1, human ERα receptor (Homo sapiens, UniProt P03372); experiment: Estrogen Receptor luciferase assay in HEK293 cells transfected with ERα; format: cell-based; conditions: HEK293 transfected with ERα and luciferase reporter, compared with estradiol, Fig 3A/3B
T1 construct: host or cells: HEK293
T1 sequence (P03372 1-595): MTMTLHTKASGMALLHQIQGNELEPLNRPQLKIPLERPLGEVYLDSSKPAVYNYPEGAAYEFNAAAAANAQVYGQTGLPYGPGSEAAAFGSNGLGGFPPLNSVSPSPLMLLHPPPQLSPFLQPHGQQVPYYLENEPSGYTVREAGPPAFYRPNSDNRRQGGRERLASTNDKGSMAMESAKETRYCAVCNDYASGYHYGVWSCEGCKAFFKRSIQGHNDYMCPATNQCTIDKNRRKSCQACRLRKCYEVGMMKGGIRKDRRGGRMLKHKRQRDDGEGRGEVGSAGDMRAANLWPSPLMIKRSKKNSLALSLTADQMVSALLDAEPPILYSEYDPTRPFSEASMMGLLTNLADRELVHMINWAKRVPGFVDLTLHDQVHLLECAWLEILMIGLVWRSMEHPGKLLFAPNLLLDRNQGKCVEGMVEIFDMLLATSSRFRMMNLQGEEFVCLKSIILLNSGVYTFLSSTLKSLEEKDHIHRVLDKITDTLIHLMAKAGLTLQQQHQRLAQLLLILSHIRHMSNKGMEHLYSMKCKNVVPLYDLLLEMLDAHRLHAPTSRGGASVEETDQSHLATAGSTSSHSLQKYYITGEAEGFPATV
Source text: To obtain a eukaryotic vector expressing only the ER-α nuclear receptor, a construct was designed by cloning a KpnI-BamHI fragment from plasmid pEGFP-C1-ERα containing the ERα coding sequence that includes a stop signal into the pEGFP-N3 plasmid (Clontech Laboratories, Palo Alto, CA) under the control of the CMV promoter. This construction was termed pEGFP-N-ERα, and although it encoded both human ERα receptor and GFP protein, only the former is expressed. For mock transfections, pEGFP-N3 plasmid was digested with BglII and NotI and religated after polishing DNA ends to remove GFP coding sequence. Plasmid sequence was confirmed by automatic sequencing. Prior to transfection, cells were seeded in 48 well plates at density of 1.5 x 10^4 cells/well and incubated for 24 h to reach a cell confluence of 80–90%. […] MCF-7 cells, which endogenously express ERα receptor, were transfected with p3xERRE/ERE-luciferase plus the pRLTK Renilla luciferase control plasmid (95:5). Firefly and Renilla luciferase activities were measured using the Dual Luciferase Assay System (Promega, Madison, WI, USA), following a standard protocol using a Sirius L luminometer (Berthold Technologies, Bad Wildbad, Germany). Data were expressed as relative changes in luciferase activity and normalized to 100%.

Structure (SMILES)	IC50 (A549 cells) [µM]	IC50 (MDA-MB-231 cells) [µM]	IC50 (MCF-7 cells) [µM]	IC50 at 72 h (MTT assay, CCD39Lu) [µM]	IC50 at 72 h (MTT assay, MCF-12A) [µM]	ER dependent transcriptional activity (human ERα receptor)	Toxicity/effect in MTT assay (in words), MDA-MB-231 (MDA-MB-231 cells; 72 h)	Activity in MTT assay (in words), MCF-7 (MCF-7 cells)
COc1ccc(NC(=O)c2cc(Cl)ccc2[N+](=O)[O-])cc1 [Compound 3]	> 100	> 100	> 100	> 100	> 100	–	–	–
COc1cc(NC(=S)c2ccc(NC(=S)c3cc(OC)c(OC)c(OC)c3)cc2)cc(OC)c1OC [Compound 16]	> 100	30	69.8	6.48	> 100	did not stimulate ER dependent transcriptional activity	–	–
O=C(Nc1cc(F)c(F)c(F)c1)c1ccccc1[N+](=O)[O-] [Compound 8]	> 100	> 100	> 100	> 100	> 100	–	–	–
O=C(Nc1cc(F)c(F)c(F)c1F)c1ccccc1NC(=O)c1cc(F)c(F)c(F)c1F [Compound 12]	> 100	40.1	> 100	61.4	> 100	did not stimulate ER dependent transcriptional activity	–	–
COc1ccc(NC(=O)c2ccc(NC(=O)c3ccc(OC)cc3)cc2)cc1 [Compound 17]	> 100	> 100	> 100	> 100	> 100	–	–	–
Fc1cc(NC(=S)c2ccccc2NC(=S)c2cc(F)c(F)c(F)c2)cc(F)c1F [Compound 10]	0.41	0.52	0.37	0.76	1.22	–	significant degree of toxicity	significant activity
COc1ccc(NC(=O)c2ccc(F)cc2[N+](=O)[O-])cc1 [Compound 2]	47.6	39.7	38.3	45.2	> 100	did not stimulate ER dependent transcriptional activity	–	significant activity
COc1ccc(NC(=O)c2ccc(OC)cc2[N+](=O)[O-])cc1 [Compound 4]	30.1	67	28.4	48.8	> 100	did not stimulate ER dependent transcriptional activity	–	significant activity
